Measurements published in patent US10576069B2, “Treatment for chemotherapy-induced cognitive impairment” (Panacea Pharmaceutical Inc., priority 2013, dated 2020).

Legend:
[1] = system: human lung cancer cell line H460; assay: LDH analysis (membrane integrity) of H460 cancer cells; format: cell-based; details: H460, 3 days
Method: (§1) Cancer Cell Culture. The mouse liver cancer cell line BNLT3 (gift of Dr. Jack Wands, Brown University) and the human lung cancer cell line H460 (ATCC) were seeded into 96-well plates at a density of 4,000 cells/well and cultured at 37° C., 5% CO2, in DMEM (11965, Gibco) supplemented with 10% fetal bovine serum, 20 mM HEPES, 1 mM sodium pyruvate, and […] gentamycin (all reagents came from Gibco).
(§2) Cell Insults and Treatments. Determination of concentration for each anticancer drug in our experiments was based on its reported concentration in human cerebral spinal fluid (CSF) in chemotherapy, literature report of its neurotoxicity in culture, and our preliminary in vitro experimental data. […] For ROS examination, the neurons were insulted with both 100 μM of MTX and 25 μM of 5-FU by 15 d.i.v. PAN-811.Cl.H2O was added to cultures to final concentrations of 1.25, 2.5, 5, and 10 μM at the same time as addition of the anticancer drugs.
(§3) Quantitative Assays and Morphological Assessment. Cell membrane integrity and mitochondrial function of either neurons or cancer cells were measured with LDH and 3-(4,5-dimethylthiazol-2-yl)-5-(3-carboxymethoxyphenyl)-2-(4-sulfophenyl)-2H-tetrazolium [MTS] analyses, respectively. The latter has been used to quantify cell survival. For the LDH assay, a mixture of a 35 μL aliquot of culture supernatant and 17.5 μL of Mixed Substrate, Enzyme and Dye Solutions (Sigma) was incubated at room temperature (RT) for 30 minutes. For the MTS assay, 10 μL of MTS reagent (Promega) was added to a culture well containing neurons in 50 μL of medium. The preparations were incubated at 37° C. for 2 hours. The preparations for both assays were then spectrophotometrically measured at 490 nm using a 96-well plate reader (Mode 550, Bio-Rad). Neuronal cell death was morphologically determined based on the integrity of the cell soma and continuity of neuronal processes. The change in number of cancer cells was judged directly by cell density. Cells were photographed under an inverted phase contrast microscope (IX 70, Olympus) using 10× or 20× objective.
Data Analysis. Data were generated from 4-6 replicate wells, expressed as mean±standard deviation (SD), and statistically evaluated at a significance level of […] with one factor ANOVA or Student's t-test by using software […] (http://vassarstats.net/) followed by the Tukey HSD test. Figure symbols are as follows: #, P<0.05, and ##, P<0.01, compared with control; *, P<0.05, and **, P<0.01, compared with the insulted group; §§, P<0.01, compared with PAN-811 treated group by Student's t-test.

[2] = system: mixed cortical and striatal neurons; assay: LDH analysis (cell membrane leakage) of neurons insulted with anticancer drugs; format: cell-based; details: MTX 100 μM, 5-FU 25 μM, CDDP 3.5 μM
Method: Neuronal Cell Culture. Mixed cortical and striatal neurons from embryonic day 17 male Sprague-Dawley rats (tissue obtained from NIH) were seeded into poly-D-lysine coated 96-well plates at density of 50,000 cells/well and initially cultured at 37° C., 5% CO2, in neurobasal medium (NB) with B27 supplement (Invitrogen) containing full strength of AOs to obtain highly enriched (95%) neurons. Since AOs, including vitamin E, vitamin E acetate, superoxide dismutase (SOD), catalase (CAT), and GSH, are additives to culture medium, reduction of AO concentration in culture medium provides an approach to determine the level of OS involvement in a neurotoxic process. […]
(§4) Quantitative Assays and Morphological Assessment. Cell membrane integrity and mitochondrial function of either neurons or cancer cells were measured with LDH and 3-(4,5-dimethylthiazol-2-yl)-5-(3-carboxymethoxyphenyl)-2-(4-sulfophenyl)-2H-tetrazolium [MTS] analyses, respectively. The latter has been used to quantify cell survival. […] The preparations for both assays were then spectrophotometrically measured at 490 nm using a 96-well plate reader (Mode 550, Bio-Rad). Neuronal cell death was morphologically determined based on the integrity of the cell soma and continuity of neuronal processes. […]

[3] = system: human lung cancer cell line H460; assay: MTS analysis of H460 cancer cells; format: cell-based; details: H460, 3 days; 3.5 μM CDDP, 10 μM PAN-811 or both; FIG. 5(d)
Method: as §1
Cell Insults and Treatments. Determination of concentration for each anticancer drug in our experiments was based on its reported concentration in human cerebral spinal fluid (CSF) in chemotherapy, literature report of its neurotoxicity in culture, and our preliminary in vitro experimental data. […]
as §4

[4] = system: mouse liver cancer cell line BNLT3; assay: MTS analysis of BNLT3 cancer cells; format: cell-based; details: BNLT3, 3 days, 10 μM PAN-811 or both
Method: as §1, §2
as §3, with “The preparations were incubated at 37° C. for 2 hours.” left out, “The change in number of cancer cells was judged directly by cell density. Cells were photographed under an inverted phase contrast microscope (IX 70, Olympus) using 10× or 20× objective.” left out
Data Analysis. Data were generated from 4-6 replicate wells, expressed as mean±standard deviation (SD), and statistically evaluated at a significance level of 1% with one factor ANOVA or Student's t-test by using software […] […]

[5] = system: MCAo infarct formation, brain edema, mortality; details: single i.v. bolus, 2 mg/kg, two-hour MCAo; cited from earlier work
[6] = system: hydrogen peroxide-induced LDH release; details: PAN-811 at 10 μM; compared with untreated and H2O2-insulted group; cited from earlier work
[7] = 25 μM 5-FU, 10 μM PAN-811 or cotreatment, FIG. 5(f)
[8] = 3.5 μM CDDP, 10 μM PAN-811 or both, FIG. 5(g)
[9] = 100 μM MTX or 10 μM PAN-811, FIG. 5(e)

| Structure (SMILES) | increase in LDH reading in the culture supernatant [1, 7] [%] | LDH increase in culture supernatant (cell membrane leakage) ([2]; neurons in 25% AO, 3 days, FIG. 1(c)) | increase in LDH reading ([2]; neurons, 12.5% AO condition, FIG. 2(b)) | reduction of MTS reading [3] [%] | reduction of MTS reading ([4]; 3.5 μM CDDP, FIG. 4(f)) [%] | increase in LDH reading in the culture supernatant [1, 8] [%] | increase in LDH reading in the culture supernatant [1, 9] [%] | maximal protection (reduction of infarct volume) [5] [%] | maximal protection against hydrogen peroxide-induced LDH release [6] [%] | reduction of MTS reading ([4]; 100 μM MTX, FIG. 4(d)) |
| --- | --- | --- | --- | --- | --- | --- | --- | --- | --- | --- |
| O=c1[nH]cc(F)c(=O)[nH]1 [5-FU, 5-fluorouracil] | 124 | – | – | – | – | – | – | – | – | – |
| N.N.[Cl][Pt][Cl] [CDDP] | – | significant LDH increase | significant increases in LDH reading | 22 | 44 | 71 | – | – | – | – |
| CN(Cc1cnc2nc(N)nc(N)c2n1)c1ccc(C(=O)N[C@@H](CCC(=O)O)C(=O)O)cc1 [MTX, methotrexate] | – | – | – | – | – | – | 95 | – | – | – |
| NC(=S)N/N=C/c1ncccc1N [PAN-811, 3-aminopyridine-2-carboxaldehyde thiosemicarbazone] | 30 | – | – | – | 94 | 30 | 31 | 50 | 90 | the same level as MTX |
